# Measured values published in patent publication US9988372B2, “Crystalline form of 5-chloro-N-({(5S)-2-oxo-3-[4-(5,6-dihydro-4H-[1,2,4]triazin-1-yl)phenyl]-1,3-oxazolidin-5-yl}methyl)thiophene-2-carboxamide methanesulfonate and pharmaceutical composition comprising same” (GREEN CROSS CORPORATION, priority 2014, dated 2018).
# “Also recorded” adds a separate entry of the source.
# Key:
# Format in all cases: physicochemical
# [1] = Stability in solvent slurry system (interconversion of crystalline forms, final form identified by DSC); settings: for Final form (DSC peak): slurry; for Interconversion of crystalline form while stirred in solvent: stirred in the solvent for 24 hours, various solvents (summary of Table 4)
# Experimental: 1) Measurement of Stability in Solvent Slurry System
# In order to determine whether one crystalline form is interconverted into another crystalline form in a stirred solvent, a slurry test was performed in different solvents at room temperature.
# First, an automated polyblock reactor was filled with each of the solvents listed in Table 4 below at room temperature (30±5° C.). […] Thereafter, an anti-solvent listed in Table 4 below (n-butanol or IPA) was added into the reactor for 30±15 minutes and stirred for 30±15 minutes until a transparent solution was obtained. The resultant was cooled to a temperature of 0±5° C., stirred for 2-3 hours, and then filtered at 0±5° C. The obtained material was dried at 60±5° C. for 3 to 4 hours in VTD, and then DSC analysis was performed for the obtained sample to identify the final crystalline form.
# DSC analysis was performed for the obtained sample to identify the final crystalline form.
# [2] = Interconversion at high temperature (final form identified by DSC); settings: for Final form (DSC peak): dried at 80±5° C. in non-vacuum state, then cooled to 30±5° C., methanesulfonate; for Stability at high temperature: summary of Table 5
# Experimental: 2) Measurement of Interconversion at High Temperature
# In order to determine the interconversion of crystalline forms at a high temperature, each of Crystalline Forms 1 and 5 was dried at 80±5° C. in non-vacuum state, and then cooled to a temperature of 30±5° C. DSC analysis was performed for the obtained samples to identify the final crystalline form.
# [3] = Stability under physical stimulus (multi-milling, manual grinding, humidification; final form identified by DSC); settings: methanesulfonate; for Stability under physical stimulus: milling, grinding and humidification (summary of Table 6)
# Experimental: 3) Measurement of Stability Under Physical Stimulus
# Multi-milling, manual grinding and humidification test were performed for the crystalline forms of the present invention to confirm their stability under physical stimulus. For multi-milling test, each of Crystalline Forms 1 and 5 was milled at 3,000 rpm by using a prototype multi-mill instrument (Sreenex Machines Pvt. Ltd.). For manual grinding, each of the crystalline forms was gradually ground by using a pestle and mortar. In the humidification test, Crystalline Forms 1 and 5 were stored at 30° C. and 90% RH for 24 hours.
# DSC analysis was performed for the crystalline forms obtained from the tests to identify the final crystalline form.
# [4] = Solubility in methanol solvent; settings: in the methanol solvent; methanesulfonate
# Experimental: The solubility of each of Crystalline Forms 1 and 5 of the present invention was measured after being dissolved in the methanol solvent.
# [5] = Stability in solvent slurry system (interconversion of crystalline forms, final form identified by DSC); settings: Dimethyl acetamide: EA, solvent 3 vol, anti-solvent 20 vol
# [6] = Methanol: IPA, solvent 7 vol, anti-solvent 20 vol, methanesulfonate
# [7] = Methanol: n-butanol, solvent 7 vol, anti-solvent 20 vol, methanesulfonate
# [8] = solvent system Acetonitrile 10 vol, no anti-solvent, methanesulfonate
# [9] = solvent system Isopropyl alcohol (IPA) 10 vol, no anti-solvent, methanesulfonate
"Final form (DSC peak) [1, 6]","Final form (DSC peak) [1, 7]","Final form (DSC peak) [1, 8]","Final form (DSC peak) ([1]; solvent system Ethyl acetate (EA) 10 vol, no anti-solvent)","Final form (DSC peak) ([1]; solvent system Heptane 10 vol, no anti-solvent)","Final form (DSC peak) [1, 9]","Final form (DSC peak) ([1]; solvent system Methyl tert-butyl ether (MTBE) 10 vol, no anti-solvent)","Final form (DSC peak) ([1]; solvent system n-butanol 10 vol, no anti-solvent)",Interconversion of crystalline form while stirred in solvent ([1]; methanesulfonate),Final form (DSC peak) [2],Stability at high temperature [2],solubility [4],Final form (DSC peak) [5],"Final form (DSC peak) ([1]; solvent system Hexane 10 vol, no anti-solvent)","Final form ([3]; Humidification, stored at 30° C. and 90% RH for 24 hours)",Final form ([3]; Manual grinding with pestle and mortar),"Final form ([3]; Multi-milling at 3,000 rpm)",Structure (SMILES),Stability under physical stimulus [3]
Crystalline Form 5 (186.80),Crystalline Form 5 (186.27),Crystalline Form 5 (186.88),Crystalline Form 5 (186.48),Crystalline Form 5 (186.44),Crystalline Form 5 (186.33),Crystalline Form 5 (186.45),Crystalline Form 5 (186.76),maintains the initial form,Crystalline Form 5 (187.0),stable at high temperature,30 mg/mL,Crystalline Form 5 (187.05),,,,,"O=C(NC[C@H]1CN(c2ccc(N3CCNC=N3)cc2)C(=O)O1)c1ccc(Cl)s1 [Crystalline Form 5, 5-chloro-N-({(5S)-2-oxo-3-[4-(5,6-dihydro-4H-[1,2,4]triazin-1-yl)phenyl]-1,3-oxazolidin-5-yl}methyl)thiophene-2-carboxamide methanesulfonate]",stability without change of crystalline forms; also recorded: stable under physical stimulus
Mixed crystalline forms,Crystalline Form 5 (187.7),Mixed crystalline forms,,,Crystalline Form 5 (187.0),,,tends to convert into Crystalline Form 5,Crystalline Form 1 (178.0),stable at high temperature,70 mg/mL,,Mixed crystalline forms,Crystalline Form 1,Crystalline Form 1,Crystalline Form 1,"O=C(NC[C@H]1CN(c2ccc(N3CCNC=N3)cc2)C(=O)O1)c1ccc(Cl)s1 [Crystalline Form 1, 5-chloro-N-({(5S)-2-oxo-3-[4-(5,6-dihydro-4H-[1,2,4]triazin-1-yl)phenyl]-1,3-oxazolidin-5-yl}methyl)thiophene-2-carboxamide methanesulfonate]",stability without change of crystalline forms; also recorded: stable under physical stimulus
